According to patent US11866450B2, “Modulators of Cystic Fibrosis Transmembrane Conductance regulator, pharmaceutical compositions, methods of treatment, and process for making the modulators” (priority 2018, dated 2024):
pEC50: −log10 of the molar value.

Molecular target: CFTR-mediated chloride transport (Homo sapiens, UniProt P13569)
Format: cell-based
Conditions: enteroid cells incubated with test compound 18-24 hours, acute 10 μM forskolin and 300 nM Compound III; for Max. Activity: % of chloride transport with 3 μM Compound A, 3 μM Compound II and 300 nM acute Compound III triple combination control
How it was run: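 Human intestinal enteroid cells incubated with compound 18–24 h at 37° C., then membrane potential dye (FLIPR) read 15 min after chloride-free stimulation with 10 μM forskolin, 100 μM IBMX and 300 nM Compound III. AUC expressed as % of triple-combination control (3 μM Compound A, 3 μM Compound II, 300 nM Compound III).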

CFTR-mediated chloride transport, sequence (P13569 whole entry, looked up): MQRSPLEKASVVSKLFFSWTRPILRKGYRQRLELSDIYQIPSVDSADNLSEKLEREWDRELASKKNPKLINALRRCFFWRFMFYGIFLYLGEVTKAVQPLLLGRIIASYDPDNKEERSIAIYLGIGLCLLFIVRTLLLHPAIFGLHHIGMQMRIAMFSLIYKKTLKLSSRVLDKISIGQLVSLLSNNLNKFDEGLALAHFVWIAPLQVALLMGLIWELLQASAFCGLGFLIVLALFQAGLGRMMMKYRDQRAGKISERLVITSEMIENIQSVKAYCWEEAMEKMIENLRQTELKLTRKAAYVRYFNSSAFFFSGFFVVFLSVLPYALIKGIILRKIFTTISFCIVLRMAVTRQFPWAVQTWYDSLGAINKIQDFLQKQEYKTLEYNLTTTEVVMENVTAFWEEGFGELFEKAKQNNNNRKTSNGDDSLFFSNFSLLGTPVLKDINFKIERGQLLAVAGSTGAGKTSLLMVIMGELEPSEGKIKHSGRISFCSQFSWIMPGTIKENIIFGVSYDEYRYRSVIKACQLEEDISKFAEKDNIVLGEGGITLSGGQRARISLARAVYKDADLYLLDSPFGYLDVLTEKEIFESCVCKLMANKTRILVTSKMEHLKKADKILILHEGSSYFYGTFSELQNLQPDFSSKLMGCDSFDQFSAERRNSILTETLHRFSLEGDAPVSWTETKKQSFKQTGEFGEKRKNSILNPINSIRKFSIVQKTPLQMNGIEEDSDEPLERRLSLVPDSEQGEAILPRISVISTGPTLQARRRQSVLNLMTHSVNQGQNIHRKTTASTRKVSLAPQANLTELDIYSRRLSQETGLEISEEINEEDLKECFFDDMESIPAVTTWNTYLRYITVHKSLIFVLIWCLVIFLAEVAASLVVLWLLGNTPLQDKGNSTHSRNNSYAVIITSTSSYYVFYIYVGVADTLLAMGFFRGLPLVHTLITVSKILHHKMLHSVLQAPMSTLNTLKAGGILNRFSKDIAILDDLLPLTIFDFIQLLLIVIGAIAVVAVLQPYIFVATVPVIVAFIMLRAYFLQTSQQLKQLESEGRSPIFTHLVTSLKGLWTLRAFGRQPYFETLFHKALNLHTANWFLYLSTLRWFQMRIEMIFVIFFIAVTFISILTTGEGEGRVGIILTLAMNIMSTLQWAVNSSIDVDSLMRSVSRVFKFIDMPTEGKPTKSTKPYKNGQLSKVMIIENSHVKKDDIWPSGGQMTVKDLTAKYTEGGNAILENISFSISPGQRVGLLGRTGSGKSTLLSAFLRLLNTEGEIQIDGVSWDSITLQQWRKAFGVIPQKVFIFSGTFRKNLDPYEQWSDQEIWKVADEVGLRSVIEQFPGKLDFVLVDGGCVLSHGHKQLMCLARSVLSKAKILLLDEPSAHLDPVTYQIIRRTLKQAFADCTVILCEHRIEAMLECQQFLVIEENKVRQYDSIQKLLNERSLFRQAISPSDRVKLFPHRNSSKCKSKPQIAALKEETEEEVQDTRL

Structure (SMILES) | pEC50 | Max. Activity
CC1(C)C[C@H]2CCCCNc3ccc(cn3)S(=O)(=O)NC(=O)c3ccc(-n4ccc(OCCC5(C(F)(F)F)CC5)n4)nc3N1C2 (single isomer, unassigned) [Compound 67, 12,12-dimethyl-8-(3-{2-[1-(trifluoromethyl)cyclopropyl]ethoxy}-1H-pyrazol-1-yl)-2λ^6-thia-3,9,11,19,21-pentaazatetracyclo[18.2.2.111,14.05,10]pentacosa-1(23),5,7,9,20(24),21-hexaene-2,2,4-trione] | > 6.00 | +++ (+++ is >60%)
CC1(C)C[C@H]2CCCCNc3ccc(cn3)S(=O)(=O)NC(=O)c3ccc(-n4ccc(OCCC5(C(F)(F)F)CC5)n4)nc3N1C2 (single isomer, unassigned) [Compound 68, 12,12-dimethyl-8-(3-{2-[1-(trifluoromethyl)cyclopropyl]ethoxy}-1H-pyrazol-1-yl)-2λ^6-thia-3,9,11,19,21-pentaazatetracyclo[18.2.2.111,14.05,10]pentacosa-1(23),5,7,9,20(24),21-hexaene-2,2,4-trione] | > 6.00 | ++ (++ is 30-60%)
CC1(C)C[C@H]2CCCNc3ccc(cn3)S(=O)(=O)NC(=O)c3ccc(-n4ccc(OCCC5(C(F)(F)F)CC5)n4)nc3N1C2 (single isomer, unassigned) [Compound 72, 12,12-dimethyl-8-(3-{2-[1-(trifluoromethyl)cyclopropyl]ethoxy}-1H-pyrazol-1-yl)-2λ^6-thia-3,9,11,18,20-pentaazatetracyclo[17.2.2.111,14.05,10]tetracosa-1(22),5,7,9,19(23),20-hexaene-2,2,4-trione] | < 5.52 | + (+ is <30%)
CC1(C)C[C@H]2CCCNc3ccc(cn3)S(=O)(=O)NC(=O)c3ccc(-n4ccc(OCCC5(C(F)(F)F)CC5)n4)nc3N1C2 (single isomer, unassigned) [Compound 73, 12,12-dimethyl-8-(3-{2-[1-(trifluoromethyl)cyclopropyl]ethoxy}-1H-pyrazol-1-yl)-2λ^6-thia-3,9,11,18,20-pentaazatetracyclo[17.2.2.111,14.05,10]tetracosa-1(22),5,7,9,19(23),20-hexaene-2,2,4-trione] | > 6.00 | +++ (+++ is >60%)
CC1(C)C[C@@H]2CN1c1nc(-n3ccc(OCCC4(C(F)(F)F)CC4)n3)ccc1C(=O)NS(=O)(=O)c1cccc(n1)NCCO2 (single isomer, unassigned) [Compound 74, 12,12-Dimethyl-8-(3-{2-[1-(trifluoromethyl)cyclopropyl]ethoxy}-1H-pyrazol-1-yl)-15-oxa-2λ^6-thia-3,9,11,18,23-pentaazatetracyclo[17.3.1.111,14.05,10]tetracosa-1(22),5(10),6,8,19(23),20-hexaene-2,2,4-trione] | 5.52 to 6.00 | + (+ is <30%)
CC1(C)C[C@@H]2CN1c1nc(-n3ccc(OCCC4(C(F)(F)F)CC4)n3)ccc1C(=O)NS(=O)(=O)c1cccc(n1)NCCO2 (single isomer, unassigned) [Compound 75, 12,12-dimethyl-8-(3-{2-[1-(trifluoromethyl)cyclopropyl]ethoxy}-1H-pyrazol-1-yl)-15-oxa-2λ^6-thia-3,9,11,18,23-pentaazatetracyclo[17.3.1.111,14.05,10]tetracosa-1(22),5(10),6,8,19(23),20-hexaene-2,2,4-trione] | > 6.00 | +++ (+++ is >60%)
Cc1c2cnn1CCCC[C@H]1CN(c3nc(-n4ccc(OCCC5(C(F)(F)F)CC5)n4)ccc3C(=O)NS2(=O)=O)C(C)(C)C1 (single isomer, unassigned) [Compound 80, 21,21,23-Trimethyl-4-(3-{2-[1-(trifluoromethyl)cyclopropyl]ethoxy}-1H-pyrazol-1-yl)-10λ^6-thia-1,3,9,13,14-pentaazatetracyclo[17.2.1.111,14.02,7]tricosa-2,4,6,11(23),12-pentaene-8,10,10-trione] | < 5.52 | + (+ is <30%)
Cc1c2cnn1CCCC[C@H]1CN(c3nc(-n4ccc(OCCC5(C(F)(F)F)CC5)n4)ccc3C(=O)NS2(=O)=O)C(C)(C)C1 (single isomer, unassigned) [Compound 81, 21,21,23-trimethyl-4-(3-{2-[1-(trifluoromethyl)cyclopropyl]ethoxy}-1H-pyrazol-1-yl)-10λ^6-thia-1,3,9,13,14-pentaazatetracyclo[17.2.1.111,14.02,7]tricosa-2,4,6,11(23),12-pentaene-8,10,10-trione] | > 6.00 | ++ (++ is 30-60%)
CC1(C)C[C@H]2CCCCNc3cccc(n3)S(=O)(=O)NC(=O)c3ccc(-n4cc(OCCC5(C(F)(F)F)CC5)cn4)nc3N1C2 (single isomer, unassigned) [Compound 82, 12,12-Dimethyl-8-(4-{2-[1-(trifluoromethyl)cyclopropyl]ethoxy}-1H-pyrazol-1-yl)-2λ^6-thia-3,9,11,19,24-pentaazatetracyclo[18.3.1.111,14.05,10]pentacosa-1(23),5,7,9,20(24),21-hexaene-2,2,4-trione] | < 5.52 | + (+ is <30%)
CC1(C)C[C@H]2CCCCNc3cccc(n3)S(=O)(=O)NC(=O)c3ccc(-n4cc(OCCC5(C(F)(F)F)CC5)cn4)nc3N1C2 (single isomer, unassigned) [Compound 83, 12,12-dimethyl-8-(4-{2-[1-(trifluoromethyl)cyclopropyl]ethoxy}-1H-pyrazol-1-yl)-2λ^6-thia-3,9,11,19,24-pentaazatetracyclo[18.3.1.111,14.05,10]pentacosa-1(23),5,7,9,20(24),21-hexaene-2,2,4-trione] | > 6.00 | ++ (++ is 30-60%)
CC1(C)C[C@H]2CCCCc3cccc(n3)S(=O)(=O)NC(=O)c3ccc(-n4ccc(OCCC5(C(F)(F)F)CC5)n4)nc3N1C2 (single isomer, unassigned) [Compound 86, 12,12-dimethyl-8-(3-{2-[1-(trifluoromethyl)cyclopropyl]ethoxy}-1H-pyrazol-1-yl)-2λ^6-thia-3,9,11,23-tetraazatetracyclo[17.3.1.111,14.05,10]tetracosa-1(23),5,7,9,19,21-hexaene-2,2,4-trione] | < 5.52 | + (+ is <30%)
CC1(C)C[C@H]2CCCCc3cccc(n3)S(=O)(=O)NC(=O)c3ccc(-n4ccc(OCCC5(C(F)(F)F)CC5)n4)nc3N1C2 (single isomer, unassigned) [Compound 87, 12,12-dimethyl-8-(3-{2-[1-(trifluoromethyl)cyclopropyl]ethoxy}-1H-pyrazol-1-yl)-2λ^6-thia-3,9,11,23-tetraazatetracyclo[17.3.1.111,14.05,10]tetracosa-1(23),5,7,9,19,21-hexaene-2,2,4-trione] | > 6.00 | +++ (+++ is >60%)
Cc1nn2cc1S(=O)(=O)NC(=O)c1ccc(-n3ccc(OCCC4(C(F)(F)F)CC4)n3)nc1N1C[C@H](CCCC2)CC1(C)C (single isomer, unassigned) [Compound 91, 12,21,21-Trimethyl-4-(3-{2-[1-(trifluoromethyl)cyclopropyl]ethoxy}-1H-pyrazol-1-yl)-10λ^6-thia-1,3,9,13,14-pentaazatetracyclo[17.2.1.111,14.02,7]tricosa-2,4,6,11(23),12-pentaene-8,10,10-trione] | < 5.52 | + (+ is <30%)
Cc1nn2cc1S(=O)(=O)NC(=O)c1ccc(-n3ccc(OCCC4(C(F)(F)F)CC4)n3)nc1N1C[C@H](CCCC2)CC1(C)C (single isomer, unassigned) [Compound 92, 12,21,21-trimethyl-4-(3-{2-[1-(trifluoromethyl)cyclopropyl]ethoxy}-1H-pyrazol-1-yl)-10λ^6-thia-1,3,9,13,14-pentaazatetracyclo[17.2.1.111,14.02,7]tricosa-2,4,6,11(23),12-pentaene-8,10,10-trione] | > 6.00 | ++ (++ is 30-60%)
CC1(C)C[C@H]2CCCCOc3ccc(cc3)S(=O)(=O)NC(=O)c3ccc(-n4ccc(OCCC5(C(F)(F)F)CC5)n4)nc3N1C2 (single isomer, unassigned) [Compound 95, 12,12-dimethyl-8-(3-{2-[1-(trifluoromethyl)cyclopropyl]ethoxy}-1H-pyrazol-1-yl)-19-oxa-2λ^6-thia-3,9,11-triazatetracyclo[18.2.2.111,14.05,10]pentacosa-1(22),5,7,9,20,23-hexaene-2,2,4-trione] | > 6.00 | ++ (++ is 30-60%)
CC1(C)C[C@H]2CCCCOc3ccc(cc3)S(=O)(=O)NC(=O)c3ccc(-n4ccc(OCCC5(C(F)(F)F)CC5)n4)nc3N1C2 (single isomer, unassigned) [Compound 96, 12,12-dimethyl-8-(3-{2-[1-(trifluoromethyl)cyclopropyl]ethoxy}-1H-pyrazol-1-yl)-19-oxa-2λ^6-thia-3,9,11-triazatetracyclo[18.2.2.111,14.05,10]pentacosa-1(22),5,7,9,20,23-hexaene-2,2,4-trione] | < 5.52 | + (+ is <30%)
CC1(C)C[C@H]2CCCOc3ccc(cc3)S(=O)(=O)NC(=O)c3ccc(-n4ccc(OCCC5(C(F)(F)F)CC5)n4)nc3N1C2 (single isomer, unassigned) [Compound 99, 12,12-dimethyl-8-(3-{2-[1-(trifluoromethyl)cyclopropyl]ethoxy}-1H-pyrazol-1-yl)-18-oxa-2λ^6-thia-3,9,11-triazatetracyclo[17.2.2.111,14.05,10]tetracosa-1(21),5,7,9,19,22-hexaene-2,2,4-trione] | > 6.00 | +++ (+++ is >60%)
